# Measurements: patent US6355799B1, “Substituted benzene compounds, process for their preparation, and herbicidal and defoliant compositions containing them” (ISK Americas Incorporated, priority 1997, dated 2002)
# Experiments:
# Format in all cases: in vivo
# [1] = tested on: upland rice (Oryza sp., var. Tebonnet, RICE); experiment: Pre-emerge test, crop safety; conditions: rating scale 0-100, 14 days after application
# Procedure, shortened: (§1)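 Rating: 0–100 visual injury, 14 DAA. Application: acetone, 187 l/ha, 15–1000 g ai/ha, flat-fan track sprayer with nozzle 40–45 cm above soil or canopy. Post-emerge runs used 0.25% v/v surfactant on 2–3 leaf plants.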
# [2] = tested on: field corn (Zea mays L., var. Dekalb 535, CORN); experiment: Pre-emerge test, crop safety; conditions: rating scale 0-100, 14 days after application
# Procedure, shortened: as §1
# [3] = tested on: redroot pigweed (Amaranthus retroflexus, AMARE); experiment: Post-emerge test, greenhouse herbicide activity screening; conditions: rating scale 0-100 (0 no damage, 100 complete death), 14 days after application
# Procedure, shortened: (§2)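 Plants grown in 10 cm pots of sandy loam mix received acetone-dissolved compounds through a moving flat-fan nozzle. Doses ranged from 15 to 1000 g ai/ha. Pre-emerge pots were seeded one day earlier, post-emerge pots 8–21 days earlier. Fourteen days on, each pot was graded 0–100 for damage.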
# [4] = tested on: green foxtail (Setaria viridis, SETVI); experiment: as above; conditions: rating scale 0-100 (0 no damage, 100 complete death), 14 days after application
# Procedure, shortened: as §2
# [5] = tested on: large crabgrass (Digitaria sanguinalis, DIGSA); experiment: as above; conditions: rating scale 0-100 (0 no damage, 100 complete death), 14 days after application
# Procedure, shortened: as §2
# [6] = tested on: lambsquarters (Chenopodium album, CHEAL); experiment: as above; conditions: rating scale 0-100 (0 no damage, 100 complete death), 14 days after application
# Procedure, shortened: as §2
# [7] = tested on: sicklepod (Cassia obtusifolia, CASOB); experiment: as above; conditions: rating scale 0-100 (0 no damage, 100 complete death), 14 days after application
# Procedure, shortened: as §2
# [8] = tested on: johnsongrass (Sorghum halepense, SORHA); experiment: as above; conditions: rating scale 0-100 (0 no damage, 100 complete death), 14 days after application
# Procedure, shortened: as §2
# [9] = tested on: ivyleaf morningglory (Ipomoea hederacea, IPOHE); experiment: as above; conditions: rating scale 0-100 (0 no damage, 100 complete death), 14 days after application
# Procedure, shortened: as §2
# [10] = tested on: velvetleaf (Abutilon theophrasti, ABUTH); experiment: as above; conditions: rating scale 0-100 (0 no damage, 100 complete death), 14 days after application
# Procedure, shortened: as §2
# [11] = tested on: common ragweed (Ambrosia artemisizfolia L., AMBEL); experiment: as above; conditions: rating scale 0-100 (0 no damage, 100 complete death), 14 days after application
# Procedure, shortened: as §2
# [12] = tested on: barnyardgrass (Echinochloa crus-galli, ECHCG); experiment: as above; conditions: rating scale 0-100 (0 no damage, 100 complete death), 14 days after application
# Procedure, shortened: as §2
# [13] = tested on: upland rice (Oryza sp., var. Tebonnet, RICE); experiment: Post-emerge test, crop safety; conditions: rating scale 0-100 (0 no damage, 100 complete death), 14 days after application
# Procedure, shortened: (§3)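 Each test used a mechanized track sprayer delivering 187 l/ha of acetone solution at 15–1000 g ai/ha. Post-emerge foliage at 2–3 leaves was treated with added 0.25% v/v non-ionic surfactant and bottom-watered only. Injury was assessed on day 14, where 100 means total kill.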
# [14] = tested on: field corn (Zea mays L., var. Dekalb 535, CORN); experiment: Post-emerge test, crop safety; conditions: rating scale 0-100 (0 no damage, 100 complete death), 14 days after application
# Procedure, shortened: as §3
# [15] = tested on: green foxtail (Setaria viridis, SETVI); experiment: Pre-emerge test, greenhouse herbicide activity screening; conditions: rating scale 0-100, 14 days after application
# Procedure, shortened: as §2
# [16] = tested on: large crabgrass (Digitaria sanguinalis, DIGSA); experiment: as above; conditions: rating scale 0-100, 14 days after application
# Procedure, shortened: as §2
# [17] = tested on: lambsquarters (Chenopodium album, CHEAL); experiment: as above; conditions: rating scale 0-100, 14 days after application
# Procedure, shortened: as §2
# [18] = tested on: sicklepod (Cassia obtusifolia, CASOB); experiment: as above; conditions: rating scale 0-100, 14 days after application
# Procedure, shortened: as §2
# [19] = tested on: johnsongrass (Sorghum halepense, SORHA); experiment: as above; conditions: rating scale 0-100, 14 days after application
# Procedure, shortened: as §2
# [20] = tested on: ivyleaf morningglory (Ipomoea hederacea, IPOHE); experiment: as above; conditions: rating scale 0-100, 14 days after application
# Procedure, shortened: as §2
# [21] = tested on: velvetleaf (Abutilon theophrasti, ABUTH); experiment: as above; conditions: rating scale 0-100, 14 days after application
# Procedure, shortened: as §2
# [22] = tested on: barnyardgrass (Echinochloa crus-galli, ECHCG); experiment: as above; conditions: rating scale 0-100, 14 days after application
# Procedure, shortened: as §2
# [23] = tested on: redroot pigweed (Amaranthus retroflexus, AMARE); experiment: as above; conditions: rating scale 0-100, 14 days after application
# Procedure, shortened: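 Compounds in acetone were track-sprayed at 15-1000 g ai/ha (187 l/ha) on sandy loam pots: pre-emerge one day after seeding, post-emerge at 2-3 leaf stage with 0.25% v/v non-ionic surfactant. Phytotoxicity was rated 14 days later on a 0 (no damage) to 100 (complete death) scale.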
smiles,measurement,setting,value
CCOC(=O)C(C)(Cl)Cc1c(OC)c(Cl)cc(F)c1-n1c(=O)cc(C(F)(F)F)n(C)c1=O (stereo not shown) [14-34],"Pre-emerge phytotoxicity rating, crop damage RICE",[1]; 63 g ai/ha,20
same,"Pre-emerge phytotoxicity rating, crop damage RICE",[1]; 250 g ai/ha,90
same,"Pre-emerge phytotoxicity rating, crop damage CORN",[2]; 63 g ai/ha,0
same,"Pre-emerge phytotoxicity rating, crop damage CORN",[2]; 250 g ai/ha,25
same,"Post-emerge Herbicidal Activity, phytotoxicity rating AMARE",[3]; Rate 63 g ai/ha,100
same,"Post-emerge Herbicidal Activity, phytotoxicity rating AMARE",[3]; Rate 250 g ai/ha,100
same,"Post-emerge Herbicidal Activity, phytotoxicity rating SETVI",[4]; Rate 63 g ai/ha,100
same,"Post-emerge Herbicidal Activity, phytotoxicity rating SETVI",[4]; Rate 250 g ai/ha,100
same,"Post-emerge Herbicidal Activity, phytotoxicity rating DIGSA",[5]; Rate 63 g ai/ha,70
same,"Post-emerge Herbicidal Activity, phytotoxicity rating DIGSA",[5]; Rate 250 g ai/ha,99
same,"Post-emerge Herbicidal Activity, phytotoxicity rating CHEAL",[6]; Rate 63 g ai/ha,100
same,"Post-emerge Herbicidal Activity, phytotoxicity rating CHEAL",[6]; Rate 250 g ai/ha,100
same,"Post-emerge Herbicidal Activity, phytotoxicity rating CASOB",[7]; Rate 63 g ai/ha,40
same,"Post-emerge Herbicidal Activity, phytotoxicity rating CASOB",[7]; Rate 250 g ai/ha,100
same,"Post-emerge Herbicidal Activity, phytotoxicity rating SORHA",[8]; Rate 63 g ai/ha,60
same,"Post-emerge Herbicidal Activity, phytotoxicity rating SORHA",[8]; Rate 250 g ai/ha,80
same,"Post-emerge Herbicidal Activity, phytotoxicity rating IPOHE",[9]; Rate 63 g ai/ha,60
same,"Post-emerge Herbicidal Activity, phytotoxicity rating IPOHE",[9]; Rate 250 g ai/ha,90
same,"Post-emerge Herbicidal Activity, phytotoxicity rating ABUTH",[10]; Rate 63 g ai/ha,99
same,"Post-emerge Herbicidal Activity, phytotoxicity rating ABUTH",[10]; Rate 250 g ai/ha,100
same,"Post-emerge Herbicidal Activity, phytotoxicity rating AMBEL",[11]; Rate 63 g ai/ha,40
same,"Post-emerge Herbicidal Activity, phytotoxicity rating AMBEL",[11]; Rate 250 g ai/ha,100
same,"Post-emerge Herbicidal Activity, phytotoxicity rating ECHCG",[12]; Rate 63 g ai/ha,100
same,"Post-emerge Herbicidal Activity, phytotoxicity rating ECHCG",[12]; Rate 250 g ai/ha,100
same,Post-emerge phytotoxicity rating RICE (crop damage),[13]; Rate 63 g ai/ha,25
same,Post-emerge phytotoxicity rating RICE (crop damage),[13]; Rate 250 g ai/ha,70
same,Post-emerge phytotoxicity rating CORN (crop damage),[14]; Rate 63 g ai/ha,80
same,Post-emerge phytotoxicity rating CORN (crop damage),[14]; Rate 250 g ai/ha,100
same,"Pre-emerge herbicidal activity, phytotoxicity rating SETVI",[15]; 63 g ai/ha,30
same,"Pre-emerge herbicidal activity, phytotoxicity rating SETVI",[15]; 250 g ai/ha,100
same,"Pre-emerge herbicidal activity, phytotoxicity rating DIGSA",[16]; 63 g ai/ha,90
same,"Pre-emerge herbicidal activity, phytotoxicity rating DIGSA",[16]; 250 g ai/ha,100
same,"Pre-emerge herbicidal activity, phytotoxicity rating CHEAL",[17]; 63 g ai/ha,95
same,"Pre-emerge herbicidal activity, phytotoxicity rating CHEAL",[17]; 250 g ai/ha,100
same,"Pre-emerge herbicidal activity, phytotoxicity rating CASOB",[18]; 63 g ai/ha,20
same,"Pre-emerge herbicidal activity, phytotoxicity rating CASOB",[18]; 250 g ai/ha,10
same,"Pre-emerge herbicidal activity, phytotoxicity rating SORHA",[19]; 63 g ai/ha,0
same,"Pre-emerge herbicidal activity, phytotoxicity rating SORHA",[19]; 250 g ai/ha,30
same,"Pre-emerge herbicidal activity, phytotoxicity rating IPOHE",[20]; 63 g ai/ha,10
same,"Pre-emerge herbicidal activity, phytotoxicity rating IPOHE",[20]; 250 g ai/ha,10
same,"Pre-emerge herbicidal activity, phytotoxicity rating ABUTH",[21]; 63 g ai/ha,100
same,"Pre-emerge herbicidal activity, phytotoxicity rating ABUTH",[21]; 250 g ai/ha,100
same,"Pre-emerge herbicidal activity, phytotoxicity rating ECHCG",[22]; 63 g ai/ha,20
same,"Pre-emerge herbicidal activity, phytotoxicity rating ECHCG",[22]; 250 g ai/ha,90
same,"Pre-emerge herbicidal activity, phytotoxicity rating AMARE",[23]; 63 g ai/ha,100
same,"Pre-emerge herbicidal activity, phytotoxicity rating AMARE",[23]; 250 g ai/ha,100
